Measurements as given in US6358885B1, “Substituted phenylheterocyclic herbicides” (Mississippi State University, priority 1992, dated 2002).

Experiments:
barley [1] = assay: Test B preemergence/postemergence greenhouse plant response rating 0 to 10; format: in vivo, Hordeum vulgare; conditions: for Plant response rating, Barley: 0 to 10 scale
Method in brief: (§1)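 Test chemicals, dissolved in a non-phytotoxic solvent, were applied to soil at planting and, at the same time, over foliage of seedlings at the one to four leaf stage.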

blackgrass = assay: as above; format: in vivo, Alopecurus myosuroides; conditions: for Plant response rating, Blackgrass: 0 to 10 scale
Method in brief: as §1

cheatgrass = assay: as above; format: in vivo, Bromus secalinus; conditions: for Plant response rating, Cheatgrass: 0 to 10 scale
Method in brief: as §1

crabgrass = assay: as above; format: in vivo, Digitaria spp.; conditions: for Plant response rating, Crabgrass: 0 to 10 scale
Method in brief: as §1

giant foxtail = assay: as above; format: in vivo, Setaria faberii; conditions: 0 to 10 scale
Method in brief: as §1

lambsquarters [2] = assay: as above; format: in vivo, Chenopodium album; conditions: 0 to 10 scale
Method in brief: as §1

rape = assay: as above; format: in vivo, Brassica napus; conditions: 0 to 10 scale
Method in brief: as §1

soybean [3] = assay: as above; format: in vivo, Glycine max; conditions: 0 to 10 scale
Method in brief: as §1

velvetleaf = assay: as above; format: in vivo, Abutilon theophrasti; conditions: 0 to 10 scale
Method in brief: as §1

purple nutsedge = assay: as above; format: in vivo, Cyperus rotundus; conditions: 0 to 10 scale
Method in brief: as §1

barley [4] = assay: Test C preemergence/postemergence greenhouse plant response rating 0 to 100; format: in vivo, Hordeum vulgare; conditions: POSTEMERGENCE
Method in brief: (§2)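 Compounds in non-phytotoxic solvent applied preemergence to sandy loam one day after planting, postemergence at the 1–4 leaf stage, or to ~2.5 cm floodwater over silt loam.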

chickweed = assay: as above; format: in vivo, Stellaria media; conditions: POSTEMERGENCE
Method in brief: as §2

lambsquarters [5] = assay: as above; format: in vivo, Chenopodium album; conditions: POSTEMERGENCE
Method in brief: as §2

pigweed = assay: as above; format: in vivo, Amaranthusretroflexus; conditions: POSTEMERGENCE
Method in brief: as §2

ryegrass = assay: as above; format: in vivo, Lolium multiflorum; conditions: POSTEMERGENCE
Method in brief: as §2

soybean [6] = assay: as above; format: in vivo, Glycine max; conditions: POSTEMERGENCE
Method in brief: as §2

sugar beet = assay: as above; format: in vivo, Beta vulgaris; conditions: POSTEMERGENCE
Method in brief: as §2

wild buckwheat = assay: as above; format: in vivo, Polygonum convolvulus; conditions: POSTEMERGENCE
Method in brief: as §2

SMILES: CCCN1C(=O)COc2cc(F)c(-c3nn4c(c3Cl)CCCC4)cc21 [Compound 32]
- Plant response rating, Barley (barley [1]; POSTEMERGENCE, Rate 10 g/ha): 5
- Plant response rating (0 to 10 scale), Barley (barley [1]; POSTEMERGENCE, Rate 50 g/ha): 5
- Plant response rating, Barley (barley [1]; PREEMERGENCE, Rate 10 g/ha): 0
- Plant response rating, Barley (barley [1]; PREEMERGENCE, Rate 50 g/ha): 0
- Plant response rating, Blackgrass (blackgrass; POSTEMERGENCE, Rate 10 g/ha): 4
- Plant response rating (0 to 10 scale), Blackgrass (blackgrass; POSTEMERGENCE, Rate 50 g/ha): 5
- Plant response rating, Blackgrass (blackgrass; PREEMERGENCE, Rate 10 g/ha): 5
- Plant response rating, Blackgrass (blackgrass; PREEMERGENCE, Rate 50 g/ha): 5
- Plant response rating, Cheatgrass (cheatgrass; POSTEMERGENCE, Rate 10 g/ha): 4
- Plant response rating (0 to 10 scale), Cheatgrass (cheatgrass; POSTEMERGENCE, Rate 50 g/ha): 5
- Plant response rating, Cheatgrass (cheatgrass; PREEMERGENCE, Rate 10 g/ha): 2
- Plant response rating, Cheatgrass (cheatgrass; PREEMERGENCE, Rate 50 g/ha): 5
- Plant response rating, Crabgrass (crabgrass; POSTEMERGENCE, Rate 10 g/ha): 3
- Plant response rating (0 to 10 scale), Crabgrass (crabgrass; POSTEMERGENCE, Rate 50 g/ha): 5
- Plant response rating, Crabgrass (crabgrass; PREEMERGENCE, Rate 10 g/ha): 2
- Plant response rating, Crabgrass (crabgrass; PREEMERGENCE, Rate 50 g/ha): 3
- Plant response rating, Giant foxtail (giant foxtail; POSTEMERGENCE, Rate 10 g/ha): 4
- Plant response rating, Giant foxtail (giant foxtail; POSTEMERGENCE, Rate 50 g/ha): 5
- Plant response rating, Giant foxtail (giant foxtail; PREEMERGENCE, Rate 10 g/ha): 2
- Plant response rating, Giant foxtail (giant foxtail; PREEMERGENCE, Rate 50 g/ha): 4
- Plant response rating, Lambsquarter (lambsquarters [2]; POSTEMERGENCE, Rate 10 g/ha): 10
- Plant response rating, Lambsquarter (lambsquarters [2]; POSTEMERGENCE, Rate 50 g/ha): 10
- Plant response rating, Lambsquarter (lambsquarters [2]; PREEMERGENCE, Rate 50 g/ha): 10
- Plant response rating, Rape (rape; POSTEMERGENCE, Rate 10 g/ha): 6
- Plant response rating, Rape (rape; POSTEMERGENCE, Rate 50 g/ha): 10
- Plant response rating, Rape (rape; PREEMERGENCE, Rate 50 g/ha): 2
- Plant response rating, Soybean (soybean [3]; POSTEMERGENCE, Rate 10 g/ha): 7
- Plant response rating, Soybean (soybean [3]; POSTEMERGENCE, Rate 50 g/ha): 8
- Plant response rating, Soybean (soybean [3]; PREEMERGENCE, Rate 50 g/ha): 0
- Plant response rating, Velvetleaf (velvetleaf; POSTEMERGENCE, Rate 10 g/ha): 10
- Plant response rating, Velvetleaf (velvetleaf; POSTEMERGENCE, Rate 50 g/ha): 10
- Plant response rating, Velvetleaf (velvetleaf; PREEMERGENCE, Rate 50 g/ha): 10
- Plant response rating, Nutsedge (purple nutsedge; POSTEMERGENCE, Rate 10 g/ha): 2
- Plant response rating, Nutsedge (purple nutsedge; POSTEMERGENCE, Rate 50 g/ha): 4
- Plant response rating, Nutsedge (purple nutsedge; PREEMERGENCE, Rate 50 g/ha): 0
- Plant response rating Barley Igri (barley [4]; 62 g/ha, 0 to 100 scale): 50
- Plant response rating (0 to 100), Barley Igri (barley [4]; Rate 1 g/ha): 20
- Plant response rating (0 to 100), Barley Igri (barley [4]; Rate 4 g/ha): 30
- Plant response rating (0 to 100), Barley Igri (barley [4]; Rate 16 g/ha): 30
- Plant response rating, Chickweed (chickweed; 62 g/ha, 0 to 100 scale): 100
- Plant response rating (0 to 100), Chickweed (chickweed; Rate 1 g/ha): 30
- Plant response rating (0 to 100), Chickweed (chickweed; Rate 4 g/ha): 60
- Plant response rating (0 to 100), Chickweed (chickweed; Rate 16 g/ha): 90
- Plant response rating Lambsquarters (lambsquarters [5]; 62 g/ha, 0 to 100 scale): 100
- Plant response rating (0 to 100), Lambsquarters (lambsquarters [5]; Rate 1 g/ha): 70
- Plant response rating (0 to 100), Lambsquarters (lambsquarters [5]; Rate 4 g/ha): 80
- Plant response rating (0 to 100), Lambsquarters (lambsquarters [5]; Rate 16 g/ha): 100
- Plant response rating Pigweed (pigweed; 62 g/ha, 0 to 100 scale): 100
- Plant response rating (0 to 100), Pigweed (pigweed; Rate 1 g/ha): 95
- Plant response rating (0 to 100), Pigweed (pigweed; Rate 4 g/ha): 100
- Plant response rating (0 to 100), Pigweed (pigweed; Rate 16 g/ha): 100
- Plant response rating Ryegrass (ryegrass; 62 g/ha, 0 to 100 scale): 40
- Plant response rating (0 to 100), Ryegrass (ryegrass; Rate 1 g/ha): 10
- Plant response rating (0 to 100), Ryegrass (ryegrass; Rate 4 g/ha): 20
- Plant response rating (0 to 100), Ryegrass (ryegrass; Rate 16 g/ha): 30
- Plant response rating, Soybean (soybean [6]; 62 g/ha, 0 to 100 scale): 90
- Plant response rating (0 to 100), Soybean (soybean [6]; Rate 1 g/ha): 20
- Plant response rating (0 to 100), Soybean (soybean [6]; Rate 4 g/ha): 50
- Plant response rating (0 to 100), Soybean (soybean [6]; Rate 16 g/ha): 70
- Plant response rating, Sugar beet (sugar beet; 62 g/ha, 0 to 100 scale): 100
- Plant response rating (0 to 100), Sugar beet (sugar beet; Rate 1 g/ha): 80
- Plant response rating (0 to 100), Sugar beet (sugar beet; Rate 4 g/ha): 100
- Plant response rating (0 to 100), Sugar beet (sugar beet; Rate 16 g/ha): 100
- Plant response rating, Wild buckwheat (wild buckwheat; 62 g/ha, 0 to 100 scale): 95
- Plant response rating (0 to 100), Wild buckwheat (wild buckwheat; Rate 1 g/ha): 30
- Plant response rating (0 to 100), Wild buckwheat (wild buckwheat; Rate 4 g/ha): 60
- Plant response rating (0 to 100), Wild buckwheat (wild buckwheat; Rate 16 g/ha): 90
